Measurements from patent US20240228487A1, “FUSED HETEROCYCLIC COMPOUND AND APPLICATION THEREOF, PHARMACEUTICAL COMPOSITIONS CONTAINING SAME AND APPLICATION THEREOF” (ZHEJIANG UNIVERSITY, priority 2021, published 2024).

Tests used:
human TRPM2 channels = target: T1, human TRPM2 channels (Homo sapiens, UniProt O94759); test: whole cell patch clamp, inhibition of TRPM2 channel current; type: cell-based; settings: HEK293 cells stably expressing human TRPM2, 500 μM ADPR
T1 construct: expressed in transfected cells
Method: The fused heterocyclic compound of the present invention has an inhibitory effect on the TRPM2 channel, and its pharmacological activity is measured using whole cell patch clamp technology, the corresponding steps are as follows: Incubating HEK293 cells stably expressing human TRPM2 channels in DMEM/F-12 medium containing 10% bovine serum, 50 units/mL of penicillin and […] of streptomycin under the condition of 5% CO2 and 37° C. The cells before testing are stored in the extracellular fluid (147 mM NaCl, 2 mM KCl, 1 mM MgCl2, 2 mM CaCl2, 10 mM HEPES, 13 mM glucose, pH 7.4). The electrode is filled with the electrode internal solution (147 mM NaCl, 0.05 mM EGTA, 1 mM MgCl2, 10 mM HEPES, 0.5 mM ADPR, pH=7.3), and the resistance is maintained at 3-5 M Ω. Administering ADPR into cells through electrodes, and detecting the ADPR concentration used to activate TRPM2 as 500 μM, when detecting a stable current, perfusing the corresponding concentration of fused heterocyclic compound II-1 into the extracellular fluid for at least 60 seconds. record the change in current magnitude using voltage ramp mode, changing the voltage from −100 mV to+100 mV within 500 ms, with a normal clamp voltage of 0 mV and a TRPM every 5 seconds; finally, replacing the extracellular fluid with a solution with pH=5.0 to block the TRPM2 current, the electrophysiological current test results obtained are shown in Table 1, and the electrophysiological current graph obtained is shown in FIG. 1. Similarly, administering corresponding concentrations of other fused heterocyclic compounds (II-2˜II-54, III-1˜III-11) into the extracellular fluid, taking electrophysiological tests using the same method, the results are shown in Table 1. The electrophysiological representative current graphs of some fused heterocyclic compounds (II-9, II-19, and II-36) inhibiting TRPM2 channel current are shown in FIG. 1.

[1] = system: dopaminergic neurons differentiated from iPSC derived from disseminated PD patients; test: cell viability (cell titer glo) of iPSC differentiated dopaminergic neurons; type: cell-based, human; settings: II-23 0.6 μM, ACA 0.5 μM, from day 15 of culture; CTG kit
Method: Using normal and disseminated PD patient-derived induced pluripotent stem cells (iPSC), performing drug interventions using the TRPM2 inhibitors ACA and II-23 after they were induced and differentiated into mature dopaminergic neurons, the drug treating method is as follows: • a. Calculating the materials for the experiment, and starting preparing when the dopaminergic neurons are differentiated to the 8th day. The petri dishes should be treated with 33 μg/mL PDL overnight and washed with sterilized water. After drying, 2 μg/mL of laminin was added and incubated overnight. Both PDL and laminin can be recycled for reuse. • b. Digesting and collecting the differentiated cells with Accutase, and counting with a cell counting plate, and then diluting to 500,000/mL with maturation medium (Y-27632 should be added). Fluorescence confocal imaging was performed using a confocal dish inoculated with 2 mL/dish, and cell viability assays were performed using a 96-well plate inoculated with 100 μL/well. Taking this time point as the 10th day, changing to Y-27632-free medium on the 11th day, and changing the medium every two days. • c. When the cells were cultured to the 15th day, treating the drugs to a final concentration with the medium, the working concentration of ACA is 0.5 μM, and the working concentration of II-23 is 0.6 μM, and the drug-containing medium was changed every four days. […]

T1 sequence (O94759 whole entry): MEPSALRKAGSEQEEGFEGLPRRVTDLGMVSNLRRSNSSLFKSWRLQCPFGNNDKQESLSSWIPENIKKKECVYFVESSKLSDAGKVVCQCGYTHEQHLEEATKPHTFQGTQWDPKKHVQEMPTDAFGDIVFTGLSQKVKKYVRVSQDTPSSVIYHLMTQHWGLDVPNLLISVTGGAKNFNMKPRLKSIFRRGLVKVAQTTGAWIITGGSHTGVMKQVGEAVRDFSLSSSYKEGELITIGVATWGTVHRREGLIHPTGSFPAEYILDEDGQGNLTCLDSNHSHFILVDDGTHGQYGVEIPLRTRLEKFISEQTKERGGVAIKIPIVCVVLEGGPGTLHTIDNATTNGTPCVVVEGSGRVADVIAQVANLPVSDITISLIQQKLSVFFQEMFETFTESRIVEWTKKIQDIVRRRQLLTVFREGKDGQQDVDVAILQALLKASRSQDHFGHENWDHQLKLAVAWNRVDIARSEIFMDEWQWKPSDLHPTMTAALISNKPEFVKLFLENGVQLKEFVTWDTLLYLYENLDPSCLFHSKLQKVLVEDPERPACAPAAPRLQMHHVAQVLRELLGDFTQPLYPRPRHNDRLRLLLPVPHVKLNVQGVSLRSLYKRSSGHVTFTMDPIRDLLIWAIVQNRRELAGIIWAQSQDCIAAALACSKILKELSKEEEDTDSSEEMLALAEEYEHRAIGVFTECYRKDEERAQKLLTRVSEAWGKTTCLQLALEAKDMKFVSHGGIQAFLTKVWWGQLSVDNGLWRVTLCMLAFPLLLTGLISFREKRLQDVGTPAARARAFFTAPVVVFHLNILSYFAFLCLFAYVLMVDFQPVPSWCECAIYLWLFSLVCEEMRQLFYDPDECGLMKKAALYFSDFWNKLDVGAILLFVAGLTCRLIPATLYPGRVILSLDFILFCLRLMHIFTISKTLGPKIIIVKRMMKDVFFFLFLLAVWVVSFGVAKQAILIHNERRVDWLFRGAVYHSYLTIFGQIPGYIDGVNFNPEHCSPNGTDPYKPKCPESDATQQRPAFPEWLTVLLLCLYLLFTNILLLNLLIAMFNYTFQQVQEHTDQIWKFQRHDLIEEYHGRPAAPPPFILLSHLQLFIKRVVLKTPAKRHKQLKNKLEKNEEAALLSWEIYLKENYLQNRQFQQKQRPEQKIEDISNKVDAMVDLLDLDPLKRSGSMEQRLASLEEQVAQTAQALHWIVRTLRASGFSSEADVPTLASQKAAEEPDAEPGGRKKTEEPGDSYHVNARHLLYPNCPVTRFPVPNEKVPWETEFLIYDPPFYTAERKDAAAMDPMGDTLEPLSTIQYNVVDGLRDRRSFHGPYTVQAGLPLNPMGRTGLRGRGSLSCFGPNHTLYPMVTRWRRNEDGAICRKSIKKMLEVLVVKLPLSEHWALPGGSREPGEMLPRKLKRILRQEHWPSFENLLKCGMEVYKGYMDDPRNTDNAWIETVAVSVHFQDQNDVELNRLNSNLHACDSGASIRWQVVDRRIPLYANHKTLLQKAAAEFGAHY

CCN(CC)C(=O)c1cc(C(=O)c2ccccc2)n2cccc2c1 [II-23, 5-Benzoyl-N, N-diethylindolizine-7-formamide]
IC50 (human TRPM2 channels): 1 to 10 µM | cell viability of differentiated dopaminergic neurons derived from disseminated PD patients [1]: restored
